What is called EC50 is the midpoint of the concentration-response curve.

The values below come from patent US12552790B2, “Positive modulators of the muscarinic acetylcholine receptor M4” (Vanderbilt University, priority 2023, dated 2026).

Like-named read-outs stand apart in the source and are kept apart here.

This assay addresses T1, hM4 (Homo sapiens, UniProt P08173).
T1 construct: expressed in transfected cells; host or cells: CHO cells stably expressing human M4 (G418 selection only)
T1 sequence (P08173 1-479): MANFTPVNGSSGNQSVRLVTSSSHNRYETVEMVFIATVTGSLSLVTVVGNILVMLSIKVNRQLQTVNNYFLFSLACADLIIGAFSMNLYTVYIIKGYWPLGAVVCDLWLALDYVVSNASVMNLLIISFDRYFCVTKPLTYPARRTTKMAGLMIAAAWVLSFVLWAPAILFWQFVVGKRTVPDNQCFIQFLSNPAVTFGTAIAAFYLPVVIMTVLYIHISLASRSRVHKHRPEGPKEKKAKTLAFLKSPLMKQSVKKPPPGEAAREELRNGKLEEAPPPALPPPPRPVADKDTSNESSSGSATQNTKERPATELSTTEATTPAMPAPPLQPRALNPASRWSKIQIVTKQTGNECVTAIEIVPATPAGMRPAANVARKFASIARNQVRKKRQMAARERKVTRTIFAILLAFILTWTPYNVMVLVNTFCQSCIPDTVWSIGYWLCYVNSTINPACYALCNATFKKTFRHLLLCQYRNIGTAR
In words: Cellular cAMP Gi HTRF assay in CHO cells, agonist and potentiator modes. The class given is cell-based. The source says:
Activation of the M4 receptor leads to the inhibition of cAMP production by coupling to Gi/o proteins. To measure the level of cAMP inhibition by M4 allosteric modulators, a Homogeneous Time-Resolved Fluorescence (HTRF®) cAMP assay was employed using CHO cells stably expressing human or rat M4 receptors. The HTRF cAMP assay is a Time-Resolved Resonance Energy Transfer (TR-FRET) competitive immunoassay. Endogenous intracellular cAMP generated by cells competes with Europium cryptate-labeled cAMP (Europium donor, emission […]) for the binding to a cAMP antibody labeled with d2 (d2-acceptor, emission […]). Thus, the fluorescence emission ratio (665 nm/620 nm) is inversely proportional to the cAMP amount in the cells. Compound-mediated M4 activation results in an increase in HTRF ratio (665 nm/620 nm), indicative of a decrease in intracellular cAMP level. To monitor agonist activity, compounds were added to the M4 cells in the presence of an EC80 concentration of forskolin (adenylyl cyclase activator) which induces a submaximal intracellular cAMP level. To assess potentiator activity, compounds were added to the M4 cells with an EC80 concentration of forskolin in the presence of an EC20 concentration of acetylcholine. This functional assay allows determination of the potency and efficacy of compounds directly activating or potentiating the Gi/o-coupled M4 receptor; representative data are shown in Table 3.
Functional agonist and potentiator activities of compounds were determined by measuring cAMP levels in Chinese Hamster Ovary (CHO) cells stably expressing human or rat M4 muscarinic receptors using an HTRF cAMP Gi/o kit. Cells were maintained in F12 medium containing 10% FBS, 20 mM HEPES, 1× Antibiotic/Antimycotic, and G418 (500 μg/ml) in 37° C. humidified incubators in the presence of 5% CO2. The day before assay, the cells were trypsinized and resuspended in plating medium (growth medium without G418). The cells were plated to white, solid, flat-bottomed, 384 well plates at densities of 4,000 and 6,000 cells/[…]/well, of human M4 and rat M4 cells, respectively. The cell plates were spun at 100×g for 1 min, then immediately placed in a 37° C. incubator in the presence of 5% CO2 overnight.
The next day, reagents were freshly diluted at a 2× concentration in assay buffer using F12 basal medium or stimulation buffer. All assay buffers contained 500 μM IBMX to block cAMP degradation. Activation of M4 by compounds was examined in cells stimulated with an EC80 concentration of forskolin to induce submaximal intracellular cAMP levels. Forskolin EC80 concentrations were determined from forskolin concentration response curves (CRCs) and ranged from 1.5 to 2.5 μM. Compounds (10 mM) were prepared in 100% DMSO and further serially diluted either 1:3 or 1:5 into a […] CRC in DMSO using a Bravo Liquid Handler in a 384 well microplate.
Agonist assay mode was used to assess the abilities of M4 compounds to directly activate M4 receptors in the absence of the agonist, acetylcholine. The 10-point serially diluted compounds, starting 30 μM as a final concentration, were transferred to a compound plate using an Echo plate reformat protocol. 2× assay buffer containing an EC80 concentration of forskolin concentration was added to the compound plate. Vehicle (1% DMSO) was added to the following control wells; baseline cAMP (no forskolin), forskolin max, and forskolin EC80. 10 μL/well of the prepared 2× assay buffer was immediately added to the cell plates using a Bravo 384 well tip liquid handler. The cell plates were immediately spun for 30 seconds at 100×g and incubated at 37° C. for 10 min with gentle shaking at 50 rpm. An acetylcholine CRC was also performed in the presence of an EC80 concentration of forskolin to determine the concentrations of acetylcholine inducing maximal (ECmax) and submaximal (EC20) cAMP inhibition in order to prepare for the subsequent potentiator mode assay. […]
For orientation: TR-FRET usually uses a lanthanide donor and a delayed reading to cut background.

Where [1] appears, read: agonist mode, forskolin EC80, no acetylcholine.
[2] abbreviates: agonist mode, forskolin EC80, no acetylcholine, read-out: hM4_cAMP Activity Agonist EC50.
Setting [3] is: potentiator mode, forskolin EC80 plus ACh EC20.
The mark [4] stands for this setting: potentiator mode, forskolin EC80 plus ACh EC20, read-out: hM4_cAMP Activity PAM EC50.

`[2H]C1([2H])Oc2ccc(OC3CCN(c4nc5c(cc4C)C(=O)NC5)CC3)cc2OC1([2H])[2H]` [Compound 3, 2-(4-((2,3-dihydrobenzo[b][1,4]dioxin-6-yl-2,2,3,3-d4)oxy)piperidin-1-yl)-3-methyl-6,7-dihydro-5H-pyrrolo[3,4-b]pyridin-5-one]: the “hM4_cAMP Activity Agonist % ACh Max” value under setting [1] was 106 % ACh Max. For the same molecule, the EC50 by setting is: under setting [2], 20 nM; under setting [4], 6 nM. The “hM4_cAMP Activity PAM % ACh Max” value under setting [3] was 94 % ACh Max.

As for `[2H]C1([2H])Oc2ccc(OC3CCN(c4nc5nn(C)c(=O)n5c(C)c4C)CC3)cc2OC1([2H])[2H]` [Compound A10, 7-(4-((2,3-dihydrobenzo[b][1,4]dioxin-6-yl-2,2,3,3-d4)oxy)piperidin-1-yl)-2,5,6-trimethyl-[1,2,4]triazolo[4,3-a]pyrimidin-3(2H)-one], the “hM4_cAMP Activity Agonist % ACh Max” value under setting [1] turned out to be 105 % ACh Max. The EC50 under setting [2] worked out at 7 nM and the EC50 under setting [4] is 2 nM. The “hM4_cAMP Activity PAM % ACh Max” value under setting [3] was 82 % ACh Max.

As for `[2H]C1([2H])Oc2ccc(OC3CCN(c4nc5nn(C)c(=O)n5cc4C)CC3)cc2OC1([2H])[2H]` [Compound A6, 7-(4-((2,3-dihydrobenzo[b][1,4]dioxin-6-yl-2,2,3,3-d4)oxy)piperidin-1-yl)-2,6-dimethyl-[1,2,4]triazolo[4,3-a]pyrimidin-3(2H)-one], under setting [1], the “hM4_cAMP Activity Agonist % ACh Max” value is reported as 89 % ACh Max. Also, the EC50 by setting is: under setting [2], 16 nM; under setting [4], 3 nM. Moreover, the “hM4_cAMP Activity PAM % ACh Max” value under setting [3] is 70 % ACh Max.
